This is an account of results in publication PMC11148373, “Cubeb (Piper cubeba L.): nutritional value, phytochemical profiling and dermacosmeceutical properties” (Frontiers in Nutrition, 2024).

This test addresses T1, elastase from porcine pancreas (Sus scrofa, UniProt P00772).
T1 construct: gene CELA1; commercial native porcine pancreatic elastase (Sigma Aldrich)
The experiment in a line: N-Succinyl-Ala-Ala-Ala-p-nitroanilide hydrolysis, absorbance at […] nm. The class given is biochemical. The following applies: read-out: IC50 (μg/mL) / Elastase (converted).

T1 sequence (P00772 27-266): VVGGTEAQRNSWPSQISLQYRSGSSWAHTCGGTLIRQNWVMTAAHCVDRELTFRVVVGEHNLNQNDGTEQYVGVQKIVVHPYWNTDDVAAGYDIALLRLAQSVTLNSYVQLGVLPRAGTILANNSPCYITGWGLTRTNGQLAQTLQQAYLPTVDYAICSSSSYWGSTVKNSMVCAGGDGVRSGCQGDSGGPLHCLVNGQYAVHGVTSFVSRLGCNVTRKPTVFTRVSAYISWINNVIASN

`O=C(O[C@@H]1Cc2c(O)cc(O)cc2O[C@@H]1c1cc(O)c(O)c(O)c1)c1cc(O)c(O)c(O)c1` [Epigallocatechin gallate]: the IC50 was 505 µM.
